# Assay results published in ChEMBL document CHEMBL1140367, “Discovery and activity of (1R,4S,6R)-N-[(1R)-2-[4-cyclohexyl-4-[[(1,1-dimethylethyl)amino]carbonyl]-1-piperidinyl]-1-[(4-fluorophenyl)methyl]-2-oxoethyl]-2-methyl-2-azabicyclo[2.2.2]octane-6-carboxamide (3, RY764), a potent and selective melanocortin subtype-4 receptor agonist” (Bioorg Med Chem Lett, 2005).
# Tests used:
# Melanocortin receptor 3 [1] = target: T1, Melanocortin receptor 3 (Homo sapiens, UniProt P41968); experiment: Percentage of cAMP accumulation at 10 uM compound relative to alpha-MSH for melanocortin receptor 3; format: functional
# Melanocortin receptor 3 [2] = target: T1, Melanocortin receptor 3; experiment: Inhibition concentration (binding affinity) against human melanocortin receptor 3 by displacement of [125I]NDP-alpha-MSH from the human receptors expressed in CHO cells; format: cell-based
# Melanocortin receptor 4 [3] = target: T2, Melanocortin receptor 4 (Homo sapiens, UniProt P32245); experiment: Inhibition concentration (binding affinity) against human melanocortin receptor 4 by displacement of [125I]NDP-alpha-MSH from the human receptors expressed in CHO cells; format: cell-based
# Melanocortin receptor 5 [4] = target: T3, Melanocortin receptor 5 (Homo sapiens, UniProt P33032); experiment: Inhibition concentration (binding affinity) against human melanocortin receptor 5 by displacement of [125I]NDP-alpha-MSH from the human receptors expressed in CHO cells; format: cell-based
# Melanocortin receptor 4 [5] = target: T2, Melanocortin receptor 4; experiment: Inhibition concentration (binding affinity) exhibited against human melanocortin receptor 4 by radio labeled ligand assay (Displacement of [125I]NDP-alpha-MSH from the human receptors expressed in CHO cells); format: functional, cell-based
# Melanocortin receptor 5 [6] = target: T3, Melanocortin receptor 5; conditions: 10 uM
# Melanocortin receptor 4 [7] = target: T2, Melanocortin receptor 4; experiment: Effective concentration (binding affinity) exhibited against human melanocortin receptor 4 by radio labeled ligand assay (Displacement of [125I]NDP-alpha-MSH from the human receptors expressed in CHO cells); format: functional, cell-based
# Melanocortin receptor 5 [8] = target: T3, Melanocortin receptor 5; experiment: Inhibition concentration (binding affinity) exhibited against human melanocortin receptor 5 by radio labeled ligand assay (Displacement of [125I]NDP-alpha-MSH from the human receptors expressed in CHO cells); format: functional, cell-based
# [9] = Cmax value in rhesus as a solution in water at 0.5 mg/kg, iv and 2 mg/kg po.; format: ADME, organism-based; conditions: cercopithecidae, in vivo
# Melanocortin receptor 3 [10] = target: T1, Melanocortin receptor 3; experiment: Percentage of cAMP accumulation at 10 uM compound relative to alpha-MSH in hMC3R; format: functional
# Melanocortin receptor 4 [11] = target: T4, Melanocortin receptor 4 (Rattus norvegicus, UniProt P70596); experiment: Inhibition concentration (binding affinity) against rat melanocortin receptor 4 by displacement of [125I]NDP-alpha-MSH from the human receptors expressed in CHO cells; format: cell-based
# [12] = target: Melanocyte-stimulating hormone receptor (Homo sapiens, UniProt Q01726); experiment: Inhibition concentration (binding affinity) against human melanocortin receptor 1 by displacement of [125I]NDP-alpha-MSH from the human receptors expressed in CHO cells; format: cell-based
# [13] = target: T5, Adrenocorticotropic hormone receptor (Homo sapiens, UniProt Q01718); experiment: Inhibition concentration (binding affinity) against human melanocortin receptor 2 by displacement of [125I]NDP-alpha-MSH from the human receptors expressed in CHO cells; format: cell-based
# Melanocortin receptor 4 [14] = target: T6, Melanocortin receptor 4 (Mus musculus, UniProt P56450); experiment: Inhibition concentration (binding affinity) against mouse melanocortin receptor 4 by displacement of [125I]NDP-alpha-MSH from the human receptors expressed in CHO cells; format: cell-based
# Melanocortin receptor 4 [15] = target: T4, Melanocortin receptor 4; experiment: Concentration of compound at 50% maximum cAMP accumulation in rat melanocortin receptor (rMC4R); format: functional
# Melanocortin receptor 4 [16] = target: T2, Melanocortin receptor 4; experiment: Concentration of compound at 50% maximum cAMP accumulation in human melanocortin receptor (hMC4R); format: functional
# Melanocortin receptor 5 [17] = target: T3, Melanocortin receptor 5; experiment: Concentration of compound at 50% maximum cAMP accumulation in human melanocortin receptor (hMC5R); format: functional
# Melanocortin receptor 4 [18] = target: T6, Melanocortin receptor 4; experiment: Concentration of compound at 50% maximum cAMP accumulation in mouse melanocortin receptor (mMC4R); format: functional
# [19] = Cmax value in beagles as a solution in water at 0.5 mg/kg, iv and 2.0 mg/kg, po.; format: ADME, organism-based, Canis lupus familiaris; conditions: beagle, dog, in vivo
# [20] = Cmax value in Sprague Dawley rats as a solution in water at 1 mg/kg, iv and 20 mg/kg, po.; format: ADME, organism-based; conditions: rat, in vivo
# [21] = Half life in rhesus as a solution in water at 0.5 mg/kg, iv and 2 mg/kg po.; format: ADME, organism-based; conditions: cercopithecidae, in vivo
# [22] = Clearance in rhesus as a solution in water at 0.5 mg/kg, iv and 2 mg/kg po.; format: ADME, organism-based; conditions: cercopithecidae, in vivo
# [23] = Clearance in beagles as a solution in water at 0.5 mg/kg, iv and 2.0 mg/kg, po.; format: ADME, organism-based, Canis lupus familiaris; conditions: beagle, dog, in vivo
# [24] = […] in beagles as a solution in water at 0.5 mg/kg, iv and 2.0 mg/kg, po.; format: organism-based, Canis lupus familiaris; conditions: beagle, dog, in vivo
# [25] = […] in Sprague Dawley rats as a solution in water at 1 mg/kg, iv and 20 mg/kg, po.; format: organism-based; conditions: rat, in vivo
# [26] = Clearance in Sprague Dawley rats as a solution in water at 1 mg/kg, iv and 20 mg/kg, po.; format: ADME, organism-based; conditions: rat, in vivo
# [27] = Volume of distribution in rhesus as a solution in water at 0.5 mg/kg, iv and 2 mg/kg po.; format: ADME, organism-based; conditions: cercopithecidae, in vivo, read-out: Vdss
# [28] = Volume of distribution in beagles as a solution in water at 0.5 mg/kg, iv and 2.0 mg/kg, po.; format: ADME, organism-based, Canis lupus familiaris; conditions: beagle, dog, in vivo, read-out: Vdss
# [29] = Volume of distribution in Sprague Dawley rats as a solution in water at 1 mg/kg, iv and 20 mg/kg, po.; format: ADME, organism-based; conditions: rat, in vivo, read-out: Vdss
# [30] = […] in rhesus as a solution in water at 0.5 mg/kg, iv and 2 mg/kg po.; format: organism-based; conditions: cercopithecidae, in vivo
# [31] = Bioavailability in rhesus as a solution in water at 0.5 mg/kg, iv and 2 mg/kg po.; format: ADME, organism-based, Macaca mulatta; conditions: rhesus monkey, in vivo
# [32] = Half life in Sprague Dawley rats as a solution in water at 1 mg/kg, iv and 20 mg/kg, po.; format: ADME, organism-based; conditions: rat, in vivo
# [33] = Bioavailability in beagles as a solution in water at 0.5 mg/kg, iv and 2.0 mg/kg, po.; format: ADME, organism-based, Canis lupus familiaris; conditions: beagle, dog, in vivo
# [34] = Bioavailability in Sprague Dawley rats as a solution in water at 1 mg/kg, iv and 20 mg/kg, po.; format: ADME, organism-based; conditions: rat, in vivo
# [35] = Half life in beagles as a solution in water at 0.5 mg/kg, iv and 2.0 mg/kg, po.; format: ADME, organism-based, Canis lupus familiaris; conditions: beagle, dog, in vivo
# [36] = target: T5, Adrenocorticotropic hormone receptor; conditions: 10 uM
# T3 sequence (P33032 whole entry): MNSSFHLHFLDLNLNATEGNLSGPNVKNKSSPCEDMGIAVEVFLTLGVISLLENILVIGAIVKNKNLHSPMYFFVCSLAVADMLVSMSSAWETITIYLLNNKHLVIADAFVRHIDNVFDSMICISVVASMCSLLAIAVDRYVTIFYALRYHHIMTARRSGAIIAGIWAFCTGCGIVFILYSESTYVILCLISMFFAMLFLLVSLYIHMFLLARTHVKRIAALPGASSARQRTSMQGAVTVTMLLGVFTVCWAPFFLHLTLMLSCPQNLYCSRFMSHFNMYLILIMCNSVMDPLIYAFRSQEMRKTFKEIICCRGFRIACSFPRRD
# T2 sequence (P32245 whole entry): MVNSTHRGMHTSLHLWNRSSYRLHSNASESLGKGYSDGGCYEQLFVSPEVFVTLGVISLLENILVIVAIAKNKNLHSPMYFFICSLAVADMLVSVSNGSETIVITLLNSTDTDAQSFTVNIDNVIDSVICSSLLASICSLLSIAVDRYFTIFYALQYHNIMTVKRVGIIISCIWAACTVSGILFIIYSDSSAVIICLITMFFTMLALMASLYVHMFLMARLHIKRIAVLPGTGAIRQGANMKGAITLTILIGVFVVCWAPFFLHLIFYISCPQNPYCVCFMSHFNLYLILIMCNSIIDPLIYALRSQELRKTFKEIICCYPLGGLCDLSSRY
# T1 sequence (P41968 whole entry): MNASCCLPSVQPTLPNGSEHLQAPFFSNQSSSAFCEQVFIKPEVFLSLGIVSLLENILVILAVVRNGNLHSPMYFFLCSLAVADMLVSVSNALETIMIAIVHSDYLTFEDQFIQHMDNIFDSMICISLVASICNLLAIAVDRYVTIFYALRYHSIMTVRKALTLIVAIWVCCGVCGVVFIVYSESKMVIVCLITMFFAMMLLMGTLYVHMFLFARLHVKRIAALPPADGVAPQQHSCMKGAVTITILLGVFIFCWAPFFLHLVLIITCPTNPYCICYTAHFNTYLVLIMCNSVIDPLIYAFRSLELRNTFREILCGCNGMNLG
# T6 sequence (P56450 whole entry): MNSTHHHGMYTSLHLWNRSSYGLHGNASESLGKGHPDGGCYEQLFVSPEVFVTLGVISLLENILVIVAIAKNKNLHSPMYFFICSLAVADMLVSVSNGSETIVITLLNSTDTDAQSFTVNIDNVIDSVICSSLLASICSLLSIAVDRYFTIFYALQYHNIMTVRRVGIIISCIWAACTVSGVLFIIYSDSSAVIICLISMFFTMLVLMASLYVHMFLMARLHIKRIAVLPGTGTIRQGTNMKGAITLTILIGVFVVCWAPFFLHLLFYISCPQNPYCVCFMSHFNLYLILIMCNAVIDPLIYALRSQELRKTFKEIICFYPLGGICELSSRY
# T5 sequence (Q01718 whole entry): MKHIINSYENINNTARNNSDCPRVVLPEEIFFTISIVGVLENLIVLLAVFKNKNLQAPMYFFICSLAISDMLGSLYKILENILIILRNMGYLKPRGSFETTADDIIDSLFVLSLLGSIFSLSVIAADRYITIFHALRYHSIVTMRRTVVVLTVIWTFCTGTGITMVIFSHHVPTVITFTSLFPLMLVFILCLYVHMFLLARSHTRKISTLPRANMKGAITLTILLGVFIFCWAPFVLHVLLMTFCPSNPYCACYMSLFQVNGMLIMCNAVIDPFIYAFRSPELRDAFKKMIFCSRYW
# T4 sequence (P70596 whole entry): as the sequence (P56450 whole entry) above, with Y21H, P36S, S199T, T239A, S329P, S330G counted along it
# Chain of Melanocyte-stimulating hormone receptor (Q01726 whole entry): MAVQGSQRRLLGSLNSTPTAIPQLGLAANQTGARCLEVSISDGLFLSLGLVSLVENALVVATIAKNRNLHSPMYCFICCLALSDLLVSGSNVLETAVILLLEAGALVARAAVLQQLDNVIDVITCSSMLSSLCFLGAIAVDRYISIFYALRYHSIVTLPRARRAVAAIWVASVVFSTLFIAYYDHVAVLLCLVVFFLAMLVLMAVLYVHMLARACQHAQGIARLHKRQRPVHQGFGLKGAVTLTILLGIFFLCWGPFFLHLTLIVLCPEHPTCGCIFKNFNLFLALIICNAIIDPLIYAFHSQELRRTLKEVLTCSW
compound,measurement,setting,value
CC(C)(C)NC(=O)C1(C2CCCCC2)CCN(C(=O)[C@@H](Cc2ccc(F)cc2)NC(=O)[C@H]2C[C@@H]3CC[C@@H]2NC3)CC1,pMax,Melanocortin receptor 3 [1],3%
same,IC50,Melanocortin receptor 3 [2],0.62 µM
same,IC50,Melanocortin receptor 4 [3],0.014 µM
same,IC50,Melanocortin receptor 5 [4],1.02 µM
same,EC50,Melanocortin receptor 4 [5],0.052 µM
same,Max,Melanocortin receptor 5 [6],3%
CN1C[C@H]2CC[C@@H]1[C@@H](C(=O)N[C@H](Cc1ccc(F)cc1)C(=O)N1CCC(C(=O)NC(C)(C)C)(C3CCCCC3)CC1)C2,EC50,Melanocortin receptor 4 [7],0.165 µM
same,Max,Melanocortin receptor 3 [1],5%
same,IC50,Melanocortin receptor 3 [2],1.35 µM
same,IC50,Melanocortin receptor 4 [3],0.028 µM
same,IC50,Melanocortin receptor 5 [4],6.46 µM
same,EC50,Melanocortin receptor 5 [8],0.85 µM
same,Max,Melanocortin receptor 5 [6],14%
CC(C)(C)NC(=O)C1(C2CCCCC2)CCN(C(=O)[C@@H](Cc2ccc(F)cc2)NC(=O)[C@H]2C[C@H]3CC[C@@H]2NC3)CC1,Max,Melanocortin receptor 3 [1],10%
same,IC50,Melanocortin receptor 3 [2],2.06 µM
same,IC50,Melanocortin receptor 4 [3],0.041 µM
same,IC50,Melanocortin receptor 5 [4],9.87 µM
same,EC50,Melanocortin receptor 4 [5],0.238 µM
same,EC50,Melanocortin receptor 5 [8],1.98 µM
same,Max,Melanocortin receptor 5 [6],26%
"CC(C)(C)NC(=O)C1(C2CCCCC2)CCN(C(=O)[C@@H](Cc2ccc(F)cc2)NC(=O)C2CC3CCC2NC3)CC1 (single isomer, unassigned)",Max,Melanocortin receptor 3 [1],4%
same,IC50,Melanocortin receptor 3 [2],0.62 µM
same,IC50,Melanocortin receptor 4 [3],0.016 µM
same,IC50,Melanocortin receptor 5 [4],0.94 µM
same,EC50,Melanocortin receptor 4 [5],0.02 µM
same,Max,Melanocortin receptor 5 [6],11%
CN1C[C@@H]2CC[C@H]1[C@@H](C(=O)N[C@H](Cc1ccc(F)cc1)C(=O)N1CCC(C(=O)NC(C)(C)C)(C3CCCCC3)CC1)C2,Max,Melanocortin receptor 3 [1],4%
same,IC50,Melanocortin receptor 3 [2],0.41 µM
same,IC50,Melanocortin receptor 4 [3],0.006 µM
same,IC50,Melanocortin receptor 5 [4],1.08 µM
same,EC50,Melanocortin receptor 4 [5],0.034 µM
same,Max,Melanocortin receptor 5 [6],5%
CN1C[C@H]2CC[C@@H]1[C@H](C(=O)N[C@H](Cc1ccc(F)cc1)C(=O)N1CCC(C(=O)NC(C)(C)C)(C3CCCCC3)CC1)C2,Cmax,[9],850 nM
same,Activation,Melanocortin receptor 3 [10],8%
same,Max,Melanocortin receptor 3 [1],8%
same,IC50,Melanocortin receptor 4 [11],3 µM
same,IC50,[12],0.75 µM
same,IC50,[13],> 10 µM
same,IC50,Melanocortin receptor 4 [14],3 µM
same,EC50,Melanocortin receptor 4 [15],5 µM
same,EC50,Melanocortin receptor 4 [16],11 µM
same,EC50,Melanocortin receptor 5 [17],0.85 µM
same,EC50,Melanocortin receptor 4 [18],6 µM
same,Cmax,[19],910 nM
same,Cmax,[20],870 nM
same,half-life,[21],4.6 h
same,clearance,[22],3.4 mL/min/kg
same,clearance,[23],6.6 mL/min/kg
same,Tmax,[24],1.1 h
same,Tmax,[25],3 h
same,clearance,[26],46.9 mL/min/kg
same,Vd,[27],0.8 L/kg
same,Vd,[28],2.3 L/kg
same,Vd,[29],9.6 L/kg
same,Tmax,[30],1.3 h
same,bioavailability,[31],16%
same,half-life,[32],3.2 h
same,bioavailability,[33],50%
same,bioavailability,[34],32%
same,half-life,[35],4.9 h
same,Activation,[36],2%
same,Max,Melanocortin receptor 5 [6],33%
